Test results from ChEMBL document CHEMBL3352722, “Calcitonin gene-related peptide receptor antagonists: new therapeutic agents for migraine” (J Med Chem, 2014).
Each block holds one molecule with its values, some of them ahead of it.

Assays:
[1] = species: Homo sapiens; assay: Antimigraine activity in migraine patient assessed as pain relief incidence at 100 mg after 2 hrs (reference value: 51.2%); format: functional
[2] = species: Homo sapiens; assay: Antimigraine activity in migraine patient assessed as pain freedom incidence at 100 mg after 2 hrs (reference value: 15.3%); format: functional
[3] = species: Homo sapiens; assay: Antimigraine activity in migraine patient assessed as pain freedom incidence at 40 mg after 2 hrs (reference value: 8.6%); format: functional
[4] = species: Homo sapiens; assay: Antimigraine activity in migraine patient assessed as pain relief incidence at 40 mg after 2 hrs (reference value: 18.6%); format: functional
[5] = target: Calcitonin gene-related peptide type 1 receptor (Homo sapiens, UniProt O60894+Q16602); assay: Antagonist activity against human CGRP receptor
Sequence of Calcitonin gene-related peptide type 1 receptor (Q16602 whole entry, one chain of several): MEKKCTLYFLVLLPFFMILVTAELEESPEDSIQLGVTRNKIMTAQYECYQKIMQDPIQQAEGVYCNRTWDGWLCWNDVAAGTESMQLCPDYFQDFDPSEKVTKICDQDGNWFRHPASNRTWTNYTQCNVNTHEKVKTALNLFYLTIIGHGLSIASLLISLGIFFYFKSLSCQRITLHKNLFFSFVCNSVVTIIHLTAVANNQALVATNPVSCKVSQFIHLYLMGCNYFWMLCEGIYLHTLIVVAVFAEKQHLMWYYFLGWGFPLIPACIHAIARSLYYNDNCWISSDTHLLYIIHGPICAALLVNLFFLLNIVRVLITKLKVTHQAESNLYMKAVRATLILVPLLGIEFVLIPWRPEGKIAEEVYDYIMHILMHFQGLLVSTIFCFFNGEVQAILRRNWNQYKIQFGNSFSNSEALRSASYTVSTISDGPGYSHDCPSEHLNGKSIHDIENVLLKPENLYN

[6] = test system: Homo sapiens; assay: In vivo receptor occupancy at CGRP receptor in human brain at 140 mg using […]-labeled compound; format: functional
[7] = test system: Homo sapiens; assay: In vivo receptor occupancy at CGRP receptor in human brain at 1120 mg using […]-labeled compound; format: functional
[8] = species: Homo sapiens; assay: Antimigraine activity in migraine patient assessed as response rate for pain freedom at 200 mg after 2 hrs; format: functional
[9] = species: Homo sapiens; assay: Antimigraine activity in migraine patient assessed as pain freedom incidence at 200 mg after 2 hrs (reference value: 8.6%); format: functional
[10] = species: Homo sapiens; assay: Antimigraine activity in migraine patient assessed as response rate for pain freedom at 50 to 400 mg after 2 hrs; format: functional
[11] = species: Homo sapiens; assay: Antimigraine activity in migraine patient assessed as pain relief incidence at 200 mg after 2 hrs (reference value: 18.6%); format: functional
[12] = species: Homo sapiens; assay: Antimigraine activity in migraine patient assessed as pain relief incidence at 400 mg after 2 hrs (reference value: 18.6%); format: functional
[13] = species: Homo sapiens; assay: Antimigraine activity in migraine patient assessed as pain freedom incidence at 400 mg after 2 hrs (reference value: 8.6%); format: functional
[14] = species: Homo sapiens; assay: Antimigraine activity in migraine patient assessed as response rate for pain freedom at 50 mg after 2 hrs; format: functional
[15] = species: Homo sapiens; assay: Antimigraine activity in migraine patient assessed as response rate for pain freedom at 400 mg after 2 hrs; format: functional

Compound: CNS(=O)(=O)Cc1ccc2[nH]cc(CCN(C)C)c2c1
Activity [1]: 72% | Activity [2]: 35%

Compound: CN1CCC[C@@H]1Cc1c[nH]c2ccc(CCS(=O)(=O)c3ccccc3)cc12
Activity [3]: 34.8% | Activity [4]: 56.5%

Compound: C[C@@]1(c2cc(F)cc(F)c2)CN([11CH3])C2(CCCC2)C(=O)N1CC(=O)Nc1ccc2c(c1)C[C@@]1(C2)C(=O)Nc2ncccc21
Occ [6]: <=10% | Occ [7]: 43%

Compound: Cc1cc(C[C@@H](OC(=O)N2CCC(N3CCc4ccccc4NC3=O)CC2)C(=O)N2CCC(N3CCOCC3)CC2)cc(C)c1O [BI-44370]
Activity [8]: 21.5% | Activity [9]: 21.5% | Activity [10]: 34.8% | Ki [5]: 0.3 nM | Activity [11]: 50.8% | Activity [12]: 56.2% | Activity [13]: 27.4% | Activity [14]: 7.8% | Activity [15]: 27.4%

Continued, values first:

IC50 [5]: 17000 nM
Compound: NCCCC[C@H](NC(=O)[C@@H](Cc1cc(Br)c(O)c(Br)c1)NC(=O)CCCc1ccccc1)C(=O)NCCc1ccccc1

IC50 [5]: 44 nM
Compound: NCCCC[C@H](NC(=O)[C@@H](Cc1cc(Br)c(O)c(Br)c1)NC(=O)N1CCC(n2c(=O)oc3ccccc32)CC1)C(=O)N1CCN(c2ccncc2)CC1
